Reference: the supplement of paper PMC12592484

Tests used:
Assay in all cases: drug sensitivity score (DSS2, normalised partial AUC of dose-response, 72 h CellTiter-Glo viability) (DSS (dimensionless)); higher = more sensitive (stronger growth inhibition / cytotoxicity); extreme values may be limits of the assay
22Rv1 = tested on: 22Rv1
Summary of the method: (§1)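 Five doses spanning a 10,000-fold range were pre-dispensed into 384-well plates, into which low-passage primary prostate cancer-associated fibroblasts, PF179T, WPMY-1, LNCaP and 22Rv1 cells were seeded. After 72 h, CellTiter-Glo 2.0 luminescence measured viability, scaled to vehicle and positive-control wells. Higher values of the drug sensitivity score, a BREEZE-computed partial area under the fitted logistic dose–response curve divided by the log of the upper asymptote, mean greater sensitivity.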

CAF#1 = tested on: CAF#1 (primary prostate cancer-associated fibroblasts of myCAF-like type)
Summary of the method: as §1

CAF#2 = tested on: CAF#2 (primary prostate cancer-associated fibroblasts of iCAF-like type)
Summary of the method: as §1

CAF#3 = tested on: CAF#3 (primary prostate cancer-associated fibroblasts of myCAF-like type)
Summary of the method: as §1

CAF#4 = tested on: CAF#4 (primary prostate cancer-associated fibroblasts of iCAF-like type)
Summary of the method: as §1

CAF#5 = tested on: CAF#5 (primary prostate cancer-associated fibroblasts of myCAF-like type)
Summary of the method: as §1

CAF#6 = tested on: CAF#6 (primary prostate cancer-associated fibroblasts of iCAF-like type)
Summary of the method: as §1

CAF#7 = tested on: CAF#7 (primary prostate cancer-associated fibroblasts of myCAF-like type)
Summary of the method: as §1

LNCAP = tested on: LNCAP
Summary of the method: as §1

PF179T = tested on: PF179T
Summary of the method: as §1

WPMY-1 = tested on: WPMY-1
Summary of the method: as §1

| Compound | drug sensitivity score (22Rv1) | drug sensitivity score (CAF#1) | drug sensitivity score (CAF#2) | drug sensitivity score (CAF#3) | drug sensitivity score (CAF#4) | drug sensitivity score (CAF#5) | drug sensitivity score (CAF#6) | drug sensitivity score (CAF#7) | drug sensitivity score (LNCAP) | drug sensitivity score (PF179T) | drug sensitivity score (WPMY-1) |
| --- | --- | --- | --- | --- | --- | --- | --- | --- | --- | --- | --- |
| C=CCc1cccc(/C=N/NC(=O)CN2CCN(Cc3ccccc3)CC2)c1O [PAC-1] (tested concentration range 1-10000 nM) | 4.4 | 0.3 | 3.6 | 1.9 | 0.2 | 1.5 | 1.9 | 2 | 3.9 | 3.9 | 6.9 |
| O=C(Nc1cccnc1)N1CCC(Cc2cccc(Oc3ccc(C(F)(F)F)cn3)c2)CC1 [PF-3845] (tested concentration range 1-10000 nM) | 2.3 | 0 | 0 | 0.2 | 0 | 0 | 0 | 0 | 3.3 | 3 | 4.6 |
| COc1ccccc1S(=O)(=O)Nc1ccc2c(c1)CN(C)C(=O)N2 [PFI-1] (tested concentration range 3-30000 nM) | 6.6 | 3.1 | 2.1 | 4.3 | 1.3 | 1 | 1.8 | 3.4 | 6.4 | 2.6 | 4.2 |
| CN1CCN(c2cc(C(=O)Nc3ccc4c(c3)-c3c(c(C(N)=O)nn3-c3ccc(F)cc3)CC4)c(Cl)cn2)CC1 [PHA 408] (tested concentration range 1-10000 nM) | 6.1 | 7.2 | 7 | 2.9 | 4.2 | 5.9 | 1.2 | 3.7 | 7.4 | 1.4 | 4.6 |
| O=C(Nc1cc(Cl)cc2c1[nH]c1cnccc12)c1cccnc1 [PS-1145] (tested concentration range 2.5-25000 nM) | 0 | 3.1 | 4.1 | 1.3 | 0 | 2.5 | 0.1 | 0 | 0 | 3.5 | 0.1 |
| CC(=O)O[C@H]1C(=O)[C@@]2(C)[C@H]([C@H](OC(=O)c3ccccc3)[C@]3(O)C[C@H](OC(=O)[C@H](O)[C@@H](NC(=O)c4ccccc4)c4ccccc4)C(C)=C1C3(C)C)[C@]1(OC(C)=O)CO[C@@H]1C[C@@H]2O [Paclitaxel] (tested concentration range 0.1-1000 nM) | 22.4 | 14.8 | 16.8 | 10.8 | 8.8 | 15.4 | 15.3 | 24.2 | 31.3 | 18.2 | 26.4 |
| C1=N/C2=N/c3ccc(OCCN4CCCC4)c(c3)COC/C=C/COCc3cccc(c3)C(=C1)N2 [Pacritinib] (tested concentration range 1-10000 nM) | 8.6 | 6.7 | 7.8 | 9.4 | 6.1 | 7.3 | 8.2 | 8.1 | 8.4 | 4.5 | 10.5 |
| CC(=O)c1c(C)c2cnc(Nc3ccc(N4CCNCC4)cn3)nc2n(C2CCCC2)c1=O [Palbociclib] (tested concentration range 1-10000 nM) | 7.9 | 2.5 | 7.4 | 0 | 3.3 | 4.9 | 1.4 | 2 | 7.7 | 5.1 | 2.1 |
| Cc1[nH]c2ccccc2c1CCNCc1ccc(/C=C/C(=O)NO)cc1 [Panobinostat] (tested concentration range 0.1-1000 nM) | 23.2 | 11.3 | 11.4 | 7.7 | 8 | 10.4 | 9.3 | 7.9 | 23.1 | 10.9 | 22.9 |
| Cc1ccc(Nc2nccc(N(C)c3ccc4c(C)n(C)nc4c3)n2)cc1S(N)(=O)=O [Pazopanib] (tested concentration range 1-10000 nM) | 0 | 3.6 | 6.7 | 4 | 5.4 | 3.7 | 1.1 | 5.1 | 4.1 | 5 | 0.2 |
| Nc1nc2[nH]cc(CCc3ccc(C(=O)N[C@@H](CCC(=O)O)C(=O)O)cc3)c2c(=O)[nH]1 [Pemetrexed] (tested concentration range 1-10000 nM) | 0 | 1.2 | 0 | 0.5 | 0 | 0 | 0 | 0 | 9.4 | 0.1 | 13.5 |
| OC[C@H]1O[C@@H](n2cnc3c2N=CNC[C@H]3O)C[C@@H]1O [Pentostatin] (tested concentration range 1-10000 nM) | 0 | 0 | 0 | 0 | 0 | 0 | 0 | 0 | 0 | 0 | 0 |
| NS(=O)(=O)OC[C@@H]1C[C@@H](n2ccc3c(N[C@H]4CCc5ccccc54)ncnc32)C[C@@H]1O [Pevonedistat] (tested concentration range 1-10000 nM) | 18.9 | 4.4 | 13 | 0 | 7 | 9 | 5.7 | 5 | 29.6 | 6.4 | 12.6 |
| FC(F)(F)c1ccc(CNc2ccc(Cc3c[nH]c4ncc(Cl)cc34)cn2)cn1 [Pexidartinib] (tested concentration range 1-10000 nM) | 0 | 4.8 | 5.9 | 1.2 | 3 | 5.1 | 0 | 2.7 | 1.4 | 1.7 | 0.6 |
| CS(=O)(=O)N1CCN(Cc2cc3nc(-c4cccc5[nH]ncc45)nc(N4CCOCC4)c3s2)CC1 [Pictilisib] (tested concentration range 1-10000 nM) | 16.1 | 11.7 | 11.5 | 10.9 | 10.9 | 12 | 7.7 | 9.3 | 13.7 | 11.2 | 12 |
| CC[C@@H]1C(=O)OC[C@@H]1Cc1cncn1C [Pilocarpine] (tested concentration range 4-40000 nM) | 0 | 0.8 | 0 | 0 | 0 | 1.5 | 0 | 0 | 0 | 0 | 0 |
| CC(C)N(C[C@H]1O[C@@H](n2cnc3c(N)ncnc32)[C@H](O)[C@@H]1O)[C@H]1C[C@@H](CCc2nc3cc(C(C)(C)C)ccc3[nH]2)C1 [Pinometostat] (tested concentration range 0.1-1000 nM) | 0 | 0 | 0 | 1.5 | 0 | 0 | 0 | 0 | 0 | 0 | 0 |
| Cc1ccc(=O)n(-c2ccccc2)c1 [Pirfenidone] (tested concentration range 1-10000 nM) | 0 | 0 | 0 | 0 | 0 | 0 | 0 | 0 | 0 | 0 | 0 |
| Nc1cccc2c1C(=O)N(C1CCC(=O)NC1=O)C2=O (stereo not drawn) [Pomalidomide] (tested concentration range 1-10000 nM) | 0 | 0 | 0 | 0 | 0 | 0 | 0 | 0 | 0 | 0 | 0 |
| C=CC(=O)N1CCC(Oc2cc3c(Nc4ccc(Cl)c(Cl)c4F)ncnc3cc2OC)CC1 [Poziotinib] (tested concentration range 0.1-1000 nM) | 0.5 | 0 | 0 | 0.3 | 0 | 0 | 0 | 0 | 3.9 | 0 | 1 |
| CCCCc1nc2cc(/C=C/C(=O)NO)ccc2n1CCN(CC)CC [Pracinostat] (tested concentration range 1-10000 nM) | 20 | 10.7 | 13.7 | 9 | 10.6 | 10.3 | 9.2 | 8.4 | 20.3 | 9.9 | 20 |
| CC[C@H](C)C(=O)O[C@H]1C[C@H](O)C=C2C=C[C@H](C)[C@H](CC[C@@H](O)C[C@@H](O)CC(=O)O)[C@H]21 [Pravastatin] (tested concentration range 1-10000 nM) | 0 | 0 | 0.3 | 0 | 0 | 0 | 0 | 0 | 0 | 0 | 0 |
| C[C@]12C=CC(=O)C=C1CC[C@@H]1[C@@H]2[C@@H](O)C[C@@]2(C)[C@H]1CC[C@]2(O)C(=O)CO [Prednisolone] (tested concentration range 1-10000 nM) | 0 | 0 | 0 | 0 | 0 | 0 | 0 | 0 | 0 | 0 | 0 |
